Laboratory results reported in article PMC2680243 (Cancer research, 2008).

Target: T1, Cdc25A (Homo sapiens, UniProt P30304)
T1 sequence (P30304 1-524): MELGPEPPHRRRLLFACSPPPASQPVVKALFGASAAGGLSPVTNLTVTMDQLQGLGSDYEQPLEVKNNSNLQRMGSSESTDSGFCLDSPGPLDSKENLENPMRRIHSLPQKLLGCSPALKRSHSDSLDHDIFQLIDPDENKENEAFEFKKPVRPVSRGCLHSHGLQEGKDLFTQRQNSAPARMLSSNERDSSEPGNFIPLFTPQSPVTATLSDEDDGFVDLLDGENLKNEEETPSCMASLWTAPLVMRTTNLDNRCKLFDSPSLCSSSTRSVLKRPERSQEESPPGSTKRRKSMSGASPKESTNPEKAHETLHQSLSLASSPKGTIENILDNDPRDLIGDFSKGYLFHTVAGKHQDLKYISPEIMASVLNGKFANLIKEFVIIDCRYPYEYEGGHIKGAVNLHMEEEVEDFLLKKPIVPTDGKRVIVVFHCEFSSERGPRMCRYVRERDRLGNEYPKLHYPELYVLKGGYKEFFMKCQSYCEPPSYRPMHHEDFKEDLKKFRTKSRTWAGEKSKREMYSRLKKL
Test: OMFP phosphatase assay, […] min pretreatment
Type: biochemical

IC50: 22.5 ± 6.2 µM
SMILES: CCOC(=O)[C@@H](N)CSN=O [SNCEE, S-nitrosocysteine ethyl ester]
